The nature of assay [1]: YAP1 pathway inhibition via CTGF transcript levels, dose response, cell-based, DLD1 colon cancer, RT-qPCR, cherry-pick (AID 1053122). Type of assay: functional. The settings on record: Cancer cell lines. (In general: Real-time PCR tracks product formation cycle by cycle.)
A short description of assay [2]: HEK293T cytotoxicity, dose response, cytotoxicity control for miR-122 modulator project, cell-based, inhibitor set, cherry-pick, set 2 (AID 720697). Type of assay: functional.
Assay [3] is described as follows: HEK293T cytotoxicity, dose response, cytotoxicity control for miR-122 modulator project, cell-based, activator set, cherry-pick (AID 720690).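 Note: HEK293T human cells scored for general mammalian cytotoxicity.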 Type of assay: functional.
Assay [4] deals with Endoplasmic reticulum aminopeptidase 1 (Homo sapiens, UniProt Q9NZ08). As to the kind of experiment: ERAP1 aminopeptidase inhibitors, dose response, biochemical, cherry-pick, set 2, plate reader (AID 743314).
Assay [5] can be described thus: NIH/3T3 fibroblast cytotoxicity, dose response, cytotoxicity control, cell-based, plate reader, dry powder, set 2 (AID 652280). The conditions noted are these: NIH3T3. Type of assay: functional.
Assay [6] can be described thus: T. cruzi growth inhibition in host cells, dose response, cell-based, plate reader, dry powder, set 2 (AID 652275). Type of assay: functional.
A further assay concerns the target Caspase-6 (Homo sapiens, UniProt P55212). As to the kind of experiment: human caspase-6 inhibitors, dose response, biochemical, VEID-R110 fluorescence, cherry-pick (AID 720632).
Assay [7] addresses G-protein coupled receptor 183 (Homo sapiens, UniProt P32249). Description: SAR confirmation of small molecule antagonists of the EBI2 receptor via a luminescent beta-arrestin assa. Type of assay: functional.
Assay [8] deals with RNA-editing ligase 1, mitochondrial (Trypanosoma brucei brucei, UniProt P86926). As to the kind of experiment: TbREL1 ligase inhibitors, dose response, biochemical, fluorescence, Trypanosoma brucei (AID 1117295). Type of assay: functional.
Assay [9] is described as follows: M. tuberculosis growth inhibition, HTS (AID 449762). Type of assay: functional.
In a further assay the target is Large T antigen (Simian virus 40, UniProt P03070). Type of assay: functional, Betapolyomavirus macacae.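 Note: Confirmatory-stage PubChem screen for compounds that inhibit SV40 T antigen.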
The nature of assay [10]: HepG2 cell cytotoxicity, dose response, cytotoxicity control, plate reader, cherry-pick, antagonist series (AID 743416). Type of assay: functional, cell-based.
Assay [11] in a line: MC4R antagonists, dose response, counter-screen for LGR2 antagonist project, cell-based, plate reader, cherry pick (AID 743444).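 Note: transfected HEK 293 cells stimulated with alpha-MSH peptide; potency of inhibitors of the alpha-MSH evoked signal.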 Type of assay: functional.
Assay [12] can be described thus: LGR2 antagonists, dose response, cell-based, HEK293, CRE-luciferase reporter, cherry pick, set 2 (AID 743343).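 Note: transfected cells were stimulated with diluted bursicon conditioned medium after compound addition.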 Type of assay: functional. In general terms: A reporter such as luciferase makes a cellular process visible.
Assay [13] can be described thus: A549 cell cytotoxicity, dose response, cytotoxicity control, plate reader, cherry-pick, antagonist series (AID 743412). Type of assay: functional, cell-based.

Calls of active or inactive are those of the source.

For orientation: AC50 means the concentration giving half of the maximal activity seen. For orientation: IC50 means the point on the concentration scale where inhibition reaches its midpoint.

RNA-editing ligase 1, mitochondrial, sequence (P86926 whole entry): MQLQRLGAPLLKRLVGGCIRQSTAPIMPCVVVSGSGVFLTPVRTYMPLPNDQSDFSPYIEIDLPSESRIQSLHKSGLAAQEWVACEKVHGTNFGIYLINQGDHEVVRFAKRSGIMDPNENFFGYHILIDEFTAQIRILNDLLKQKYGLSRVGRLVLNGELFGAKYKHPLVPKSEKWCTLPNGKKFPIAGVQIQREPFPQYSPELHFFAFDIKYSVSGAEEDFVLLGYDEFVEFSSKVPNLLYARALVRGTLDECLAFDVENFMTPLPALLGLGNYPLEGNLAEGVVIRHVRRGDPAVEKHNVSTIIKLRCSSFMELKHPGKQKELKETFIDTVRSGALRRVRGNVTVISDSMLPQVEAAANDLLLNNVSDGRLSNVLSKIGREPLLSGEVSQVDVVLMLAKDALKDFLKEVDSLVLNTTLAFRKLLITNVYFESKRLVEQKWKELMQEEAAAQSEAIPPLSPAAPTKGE
G-protein coupled receptor 183, sequence (P32249 whole entry): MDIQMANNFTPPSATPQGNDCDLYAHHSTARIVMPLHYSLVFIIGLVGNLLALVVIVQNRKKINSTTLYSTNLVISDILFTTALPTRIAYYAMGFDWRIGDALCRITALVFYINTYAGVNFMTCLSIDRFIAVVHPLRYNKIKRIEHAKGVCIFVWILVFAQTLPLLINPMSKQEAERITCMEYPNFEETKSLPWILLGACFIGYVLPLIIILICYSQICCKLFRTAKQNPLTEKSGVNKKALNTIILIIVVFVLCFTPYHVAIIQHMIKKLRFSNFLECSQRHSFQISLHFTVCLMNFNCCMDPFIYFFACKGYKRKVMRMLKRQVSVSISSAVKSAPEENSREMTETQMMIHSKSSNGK
Large T antigen, sequence (P03070 whole entry): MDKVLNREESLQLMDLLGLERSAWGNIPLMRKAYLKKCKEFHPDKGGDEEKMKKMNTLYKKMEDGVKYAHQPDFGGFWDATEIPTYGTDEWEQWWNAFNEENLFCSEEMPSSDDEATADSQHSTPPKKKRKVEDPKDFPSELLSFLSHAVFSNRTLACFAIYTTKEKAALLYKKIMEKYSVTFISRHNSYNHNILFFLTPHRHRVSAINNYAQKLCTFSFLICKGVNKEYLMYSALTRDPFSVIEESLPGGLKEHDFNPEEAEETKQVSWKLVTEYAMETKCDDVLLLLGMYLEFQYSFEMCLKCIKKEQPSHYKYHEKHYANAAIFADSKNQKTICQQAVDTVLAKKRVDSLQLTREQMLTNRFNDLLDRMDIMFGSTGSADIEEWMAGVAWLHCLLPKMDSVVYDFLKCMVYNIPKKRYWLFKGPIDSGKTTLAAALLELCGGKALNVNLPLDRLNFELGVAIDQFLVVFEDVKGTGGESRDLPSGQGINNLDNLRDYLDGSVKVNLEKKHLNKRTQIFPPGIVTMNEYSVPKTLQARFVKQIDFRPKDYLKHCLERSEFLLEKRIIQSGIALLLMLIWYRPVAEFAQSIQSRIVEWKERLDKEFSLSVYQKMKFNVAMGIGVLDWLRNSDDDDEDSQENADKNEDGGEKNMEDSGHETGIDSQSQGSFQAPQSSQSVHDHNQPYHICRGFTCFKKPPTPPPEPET
Endoplasmic reticulum aminopeptidase 1, sequence (Q9NZ08 whole entry): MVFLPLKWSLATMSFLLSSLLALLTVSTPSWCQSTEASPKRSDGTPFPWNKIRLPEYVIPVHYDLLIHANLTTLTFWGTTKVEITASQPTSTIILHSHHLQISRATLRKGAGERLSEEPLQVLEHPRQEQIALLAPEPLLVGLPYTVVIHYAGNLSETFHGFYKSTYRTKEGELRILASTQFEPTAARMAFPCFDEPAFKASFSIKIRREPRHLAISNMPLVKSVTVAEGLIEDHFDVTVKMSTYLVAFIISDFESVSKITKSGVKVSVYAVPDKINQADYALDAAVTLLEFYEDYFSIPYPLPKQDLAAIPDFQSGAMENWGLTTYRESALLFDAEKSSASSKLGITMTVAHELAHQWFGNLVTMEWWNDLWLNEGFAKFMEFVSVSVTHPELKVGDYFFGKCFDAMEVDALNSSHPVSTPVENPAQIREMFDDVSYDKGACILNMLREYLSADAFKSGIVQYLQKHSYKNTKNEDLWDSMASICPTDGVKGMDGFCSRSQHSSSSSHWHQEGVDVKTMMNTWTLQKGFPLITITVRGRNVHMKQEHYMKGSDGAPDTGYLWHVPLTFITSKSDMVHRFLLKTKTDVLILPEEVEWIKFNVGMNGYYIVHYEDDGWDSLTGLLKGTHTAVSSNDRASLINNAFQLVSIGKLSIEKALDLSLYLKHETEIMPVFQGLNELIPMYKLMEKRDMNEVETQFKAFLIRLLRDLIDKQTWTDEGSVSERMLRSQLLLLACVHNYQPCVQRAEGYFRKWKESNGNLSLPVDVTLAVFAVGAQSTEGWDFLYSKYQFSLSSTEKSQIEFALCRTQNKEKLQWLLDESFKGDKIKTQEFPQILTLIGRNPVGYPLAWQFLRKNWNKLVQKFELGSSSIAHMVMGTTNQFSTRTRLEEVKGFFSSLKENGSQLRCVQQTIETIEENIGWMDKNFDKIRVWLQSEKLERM
Caspase-6, sequence (P55212 24-179 limits assumed): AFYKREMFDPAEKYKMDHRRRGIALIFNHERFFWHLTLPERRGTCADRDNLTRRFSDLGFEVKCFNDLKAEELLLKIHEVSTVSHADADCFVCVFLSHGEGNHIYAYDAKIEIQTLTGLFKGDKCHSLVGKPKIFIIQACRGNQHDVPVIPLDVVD
Caspase-6, sequence (P55212 194-293 limits assumed): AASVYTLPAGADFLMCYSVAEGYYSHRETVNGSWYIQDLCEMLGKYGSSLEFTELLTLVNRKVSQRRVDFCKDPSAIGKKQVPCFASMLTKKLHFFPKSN

Regarding `C[C@@H]1CN([C@H](C)CO)C(=O)c2ccccc2-c2ccccc2CO[C@@H]1CN(C)Cc1cccc2c1OCCCO2`, the AC50 in assay [1] is 12.3 µM (active).
Turning to `C[C@@H]1CN([C@@H](C)CO)C(=O)Cc2cc(NS(=O)(=O)c3ccc(Cl)cc3)ccc2O[C@H]1CN(C)Cc1ccc(C(F)(F)F)cc1`, the AC50 in assay [2] was < 0.195 µM (active); in assay [3], 33.8 µM (active).
Take `O=C(NCc1ccccn1)[C@@H]1[C@@H](CO)[C@@H]2Cn3c(ccc(/C=C/c4ccccc4)c3=O)[C@H]1N2CC1CC1`: the AC50 in assay [4] was 7.58 µM (active).
Regarding `OC[C@H]1[C@H](c2ccc(-c3cccc(F)c3)cc2)[C@@H]2CN(CCC(F)(F)F)CCCCN12`, the AC50 in assay [5] was 3.34 µM (active); in assay [6], 0.53 µM (active).
For `Cc1nnc(N/N=C/c2cccc(C(F)(F)F)c2)n1N`, the AC50 on Caspase-6 was 34.8 µM (active).
In the case of `N#Cc1ccc(C(=O)N2CCN(C(=O)/C=C/c3ccc(Br)cc3)CC2)cc1`, the 50% inhibitory concentration (IC50) in assay [7] is 0.00174 µM (active).
The same measure, in the same setting: as for `O=C(/C=C/c1ccc(F)cc1)N1CCN(S(=O)(=O)c2cccc(Br)c2)CC1`, the figure is 0.0175 µM (active).
Consider `CC(C)C[C@H](NC1(C(=O)NC2CCCCC2)CCN(C)CC1)C(=O)NCC(c1ccccc1)c1ccccc1`, for which, in assay [8], the IC50 is > 96.6 µM (inactive).
In the case of `COC(=O)C1=C(C)N(Cc2ccccc2C(F)(F)F)C(NCc2ccc3c(c2)OCO3)=NC1c1ccccc1` (configuration not stated), in assay [8], the IC50 was > 96.6 µM (inactive).
`Nc1ccc2c(c1)Cc1ccccc1-2`: the half-maximal inhibitory concentration (IC50) in assay [9] was > 100 µM (active); on Large T antigen it was 3.52 µM (active).
Turning to `COc1ccc2oc(-c3ccccc3)cc(=O)c2c1` [6-METHOXYFLAVONE], the AC50 in [10] is > 52 µM (inactive); in assay [11] it was 6.5 µM (active); in [12] it was 5.46 µM (active); in assay [13] it was > 52 µM (inactive).

The values are drawn from ChEMBL document CHEMBL1201862, “PubChem BioAssay data set” (2004).
